The test system of assay [1] is MDA-MB-468. The assay can be described thus: NCI-60 one-dose SRB screen (Breast Cancer). The class given is cell-based. Conditions: Homo sapiens, single dose 10 µM, 48 h, read-out: Growth inhibition percent (GI %).
The test system of assay [2] is BT-549. The experiment in a line: NCI-60 one-dose SRB screen (Breast Cancer). The class given is cell-based. Conditions: Homo sapiens, single dose 10 µM, 48 h, read-out: Growth inhibition percent (GI %).
For assay [3], the system named is SNB-75. The experiment in a line: NCI-60 one-dose SRB screen (CNS Cancer). It is filed as cell-based. The settings on record: Homo sapiens, single dose 10 µM, 48 h, read-out: Growth inhibition percent (GI %).
The test system of assay [4] is SF-268. The experiment in a line: NCI-60 one-dose SRB screen (CNS Cancer). It is filed as cell-based. Conditions: Homo sapiens, single dose 10 µM, 48 h, read-out: Growth inhibition percent (GI %).
Assay [5] relates to SNB-19. The assay can be described thus: NCI-60 one-dose SRB screen (CNS Cancer). The class given is cell-based. The settings on record: Homo sapiens, single dose 10 µM, 48 h, read-out: Growth inhibition percent (GI %).
For assay [6], the system named is SF-295. The experiment in a line: NCI-60 one-dose SRB screen (CNS Cancer). The class given is cell-based. The settings on record: Homo sapiens, single dose 10 µM, 48 h, read-out: Growth inhibition percent (GI %).
Assay [7] relates to U251. The experiment in a line: NCI-60 one-dose SRB screen (CNS Cancer). The class given is cell-based. The settings on record: Homo sapiens, U-251, single dose 10 µM, 48 h, read-out: Growth inhibition percent (GI %).
Assay [8] deals with SF-539. The experiment in a line: NCI-60 one-dose SRB screen (CNS Cancer). Conditions: Homo sapiens, single dose 10 µM, 48 h, read-out: Growth inhibition percent (GI %). It is filed as cell-based.
The subject of assay [9] is CAKI-1. The experiment in a line: NCI-60 one-dose SRB screen (Renal Cancer). The class given is cell-based. The settings on record: Homo sapiens, single dose 10 µM, 48 h, read-out: Growth inhibition percent (GI %).
Assay [10] relates to UO-31. The assay can be described thus: NCI-60 one-dose SRB screen (Renal Cancer). It is filed as cell-based. Conditions: Homo sapiens, single dose 10 µM, 48 h, read-out: Growth inhibition percent (GI %).
For assay [11], the system named is A498. The assay can be described thus: NCI-60 one-dose SRB screen (Renal Cancer). It is filed as cell-based. The settings on record: Homo sapiens, single dose 10 µM, 48 h, read-out: Growth inhibition percent (GI %).
Assay [12] relates to 786-0. The assay can be described thus: NCI-60 one-dose SRB screen (Renal Cancer). It is filed as cell-based. Conditions: Homo sapiens, single dose 10 µM, 48 h, read-out: Growth inhibition percent (GI %).
The test system of assay [13] is ACHN. The assay can be described thus: NCI-60 one-dose SRB screen (Renal Cancer). It is filed as cell-based. The settings on record: Homo sapiens, single dose 10 µM, 48 h, read-out: Growth inhibition percent (GI %).
Assay [14] concerns RXF 393. The assay can be described thus: NCI-60 one-dose SRB screen (Renal Cancer). The class given is cell-based. The settings on record: Homo sapiens, single dose 10 µM, 48 h, read-out: Growth inhibition percent (GI %).
Assay [15] relates to SN12C. The assay can be described thus: NCI-60 one-dose SRB screen (Renal Cancer). The settings on record: Homo sapiens, single dose 10 µM, 48 h, read-out: Growth inhibition percent (GI %). The class given is cell-based.
Assay [16] has as its system TK-10. The experiment in a line: NCI-60 one-dose SRB screen (Renal Cancer). The class given is cell-based. The settings on record: Homo sapiens, single dose 10 µM, 48 h, read-out: Growth inhibition percent (GI %).
Assay [17] addresses hCA XII (Homo sapiens, UniProt O43570). The experiment in a line: CA inhibitory activity, spectrophotometric p-NPA assay. The settings on record: for IC50: p-NPA substrate, pH 7.5, 25 °C, triplicate, read-out: IC50 (µM) ± SD hCA XII. The class given is biochemical.
Procedure: The software used to calculate CA IC50 along with statistical analysis of the results is GraphPad Prism 9.00. Results were estimated by using one-way ANOVA and the Bonferroni’s multiple comparisons posthoc test was performed (P < 0.05) [46]
Carbonic anhydrase inhibitory activity:
The spectrophotometric assay was conducted in HEPES-Tris buffer, NaCl of pH 7.5 (20mM) at 25◦C. Each inhibitory well-consisted of 50 μL of assay buffer solution, 20 μL of hCA enzyme solution (20 ng/μL in Assay Buffer), and 50 μL of test compound in HPLC grade DMSO (maintain 10% of the final concentration). The mixture solution was
Substrate p-nitrophenyl acetate (p-NPA) (0.7mM) was prepared in HPLC grade methanol and the reaction was started by adding 20 μL to a well in a 96-well-plate. The amount of product formed was measured for 30 min continuously at 1 min intervals at 400 nm in a 96-well-plate using xMARK microplate spectrophotometer, Bio-Rad (USA). The activity of the controlled compound was taken as 100%. All experiments were carried out in triplicates of each used concentration, and results are represented as a

Values joined by “and” are separate entries in the source; they are usually repeats but may differ in a detail not shown here. Equal values may be shown once.

What is called inhibition is the change of the read-out against control, counted positive when it falls. The term IC50 denotes the concentration needed to halve the response being measured. Broadly, the Ki is a dissociation constant, usually derived from enzyme kinetics or from competition with a known ligand. A low value points to a stronger hold on the target.

Chain of hCA XII (O43570 25-354): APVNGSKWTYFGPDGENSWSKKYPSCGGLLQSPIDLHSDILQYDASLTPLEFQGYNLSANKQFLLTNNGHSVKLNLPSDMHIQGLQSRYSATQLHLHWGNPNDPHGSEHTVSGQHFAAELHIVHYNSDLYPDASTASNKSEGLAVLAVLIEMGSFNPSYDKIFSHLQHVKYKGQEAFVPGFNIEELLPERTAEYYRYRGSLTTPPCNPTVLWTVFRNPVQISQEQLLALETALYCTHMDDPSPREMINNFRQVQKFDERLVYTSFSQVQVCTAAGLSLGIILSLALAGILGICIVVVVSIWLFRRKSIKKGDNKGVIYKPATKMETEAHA

In the case of `COc1ccc(-c2nn(-c3ccc(S(N)(=O)=O)cc3)cc2C(=O)OCC(=O)Nc2ccc(S(N)(=O)=O)cc2)cc1` [Compound 4c, 2-Oxo-2-[(4-sulfamoylphenyl)amino] ethyl 3-(4-methoxyphenyl)-1-(4-sulfamoylphenyl)-1H-pyrazole-4-carboxylate], the inhibition at 10 µM in assay [1] is below 5%; in [2], 41.6%; in assay [3], 28.7%; in [4], below 5%; in assay [5], below 5%; in assay [6] it was below 5%. For the same compound, the inhibition at 10 µM in assay [7] was below 5%; in assay [8], below 5%; in [9], 8.36%; in assay [10] it was 11.9%; in assay [11] it was below 5%; in assay [12], 28.9%. Also, the inhibition at 10 µM in assay [13], in assay [14], in assay [15] and in [16] was below 5% in each case. The IC50 in assay [17] was 0.41 µM and 0.415 µM.
Turning to `CS(=O)(=O)c1ccc(-c2nn(-c3ccc(S(N)(=O)=O)cc3)cc2C(=O)OCC(=O)Nc2ccc(S(N)(=O)=O)cc2)cc1` [Compound 4e, 2-Oxo-2-[(4-sulfamoylphenyl)amino] ethyl 3-(4-(methylsulfonyl)phenyl)-1-(4-sulfamoylphenyl)-1H-pyrazole-4-carboxylate], the inhibition at 10 µM in [1], in assay [2], in assay [3], in assay [4], in assay [5] and in assay [6] was below 5% throughout. Besides, the inhibition at 10 µM in assay [7] was below 5%; in assay [8], below 5%; in assay [9], 8.93%; in assay [10], 8.95%; in assay [11], below 5%; in assay [12], below 5%. The inhibition at 10 µM in assay [13], in assay [14] and in assay [16] was below 5% in each case. The same compound showed a Ki in assay [17] of 81 nM. Besides, in [17], the half-maximal inhibitory concentration (IC50) was 0.08 µM and 0.081 µM.
Turning to `CCOC(=O)c1ccc(NC(=O)COC(=O)c2cn(-c3ccc(S(N)(=O)=O)cc3)nc2-c2ccc(OC)cc2)cc1` [Compound 5c, 2-[(4-(Ethoxycarbonyl)phenyl)amino]-2-oxoethyl 3-(4-methoxyphenyl)-1-(4-sulfamoylphenyl)-1H-pyrazole-4-carboxylate], the inhibition at 10 µM in assay [1] turned out to be 40%; in assay [2] it was 21.5%; in assay [3], 49.3%; in [4], 28.5%; in [5], 30.7%; in [6], 32.7%. Besides, the inhibition at 10 µM came to 34.3% in assay [7]; 38.7% in assay [8]; 55.6% in assay [9]; 38.5% in assay [10]; 23.2% in assay [11]; 53.1% in [12]. The inhibition at 10 µM in [13] was 21.3%; in assay [14], 55.3%; in [15] it was 21.3%; in assay [16], 23.8%. Moreover, in [17], the IC50 is 0.27 µM and 0.272 µM.
`CCOC(=O)c1ccc(NC(=O)COC(=O)c2cn(-c3ccc(S(N)(=O)=O)cc3)nc2-c2ccc(Br)cc2)cc1` [Compound 5d, 2-[(4-(Ethoxycarbonyl)phenyl)amino]-2-oxoethyl 3-(4-bromophenyl)-1-(4-sulfamoylphenyl)-1H-pyrazole-4-carboxylate]: the inhibition at 10 µM stood at 67.6% in [1]; 36.6% in assay [2]; 74.9% in assay [3]; 64.1% in assay [4]; 57.9% in assay [5]; 57.5% in [6]. Also, the inhibition at 10 µM in assay [7] was 57.9%; in assay [8], 63.3%; in [9], 81.9%; in assay [10], 58.9%; in assay [11], 20.6%; in assay [12], 74.9%. Besides, the inhibition at 10 µM in [13] was 66%; in assay [14] it was 82.8%; in [15], 47.1%; in [16] it was 18.4%. In addition, in assay [17], the IC50 turned out to be 0.99 ± 0.037 µM.
In the case of `CCOC(=O)c1ccc(NC(=O)COC(=O)c2cn(-c3ccc(S(N)(=O)=O)cc3)nc2-c2ccc(S(C)(=O)=O)cc2)cc1` [Compound 5e, 2-[(4-(Ethoxycarbonyl)phenyl)amino]-2-oxoethyl 3-(4-(methylsulfonyl)phenyl)-1-(4-sulfamoylphenyl)-1H-pyrazole-4-carboxylate], the inhibition at 10 µM in assay [1] is 20.3%; in assay [2] it was 18.9%; in assay [3], 19.6%; in assay [4], 5.8%; in assay [5], 8.29%; in [6], below 5%. For the same compound, the inhibition at 10 µM in assay [7] turned out to be 5.78%; in assay [8] it was 11.8%; in [9], 30.8%; in assay [10], 21.9%; in assay [11], 19.7%; in [12], 13.2%. For the same compound, the inhibition at 10 µM is 8.32% in assay [13], below 5% in [14], 7.85% in [15] and below 5% in [16]. Also, the IC50 in [17] is 0.16 µM and 0.167 µM.
As for `NS(=O)(=O)c1ccc(-n2cc(C(=O)OCC(=O)Nc3nnc(S(N)(=O)=O)s3)c(-c3ccccc3)n2)cc1` [Compound 6a, 2-Oxo-2-[(5-sulfamoyl-1,3,4-thiadiazol-2-yl)amino] ethyl 3-phenyl-1-(4-sulfamoylphenyl)-1H-pyrazole-4-carboxylate], the inhibition at 10 µM in assay [1] is below 5%; in assay [2] it was below 5%; in assay [3], 5.39%; in [4], below 5%; in assay [5] it was 6.91%; in [6], below 5%. For the same compound, the inhibition at 10 µM in assay [7] is below 5%; in [8], below 5%; in assay [9], 7.52%; in assay [10] it was 12.6%; in [11], below 5%; in assay [13], 6.63%. The inhibition at 10 µM in assay [14], in assay [15] and in assay [16] was below 5% throughout. Also, the IC50 in [17] is 0.35 µM and 0.358 µM.
In the case of `NC(=S)NNC(=O)c1cn(-c2ccc(S(N)(=O)=O)cc2)nc1-c1ccccc1` [Compound 9a, 2-[3-Phenyl-1-(4-sulfamoylphenyl)-1H-pyrazole-4-carbonyl] hydrazine-1-carbothioamide], the inhibition at 10 µM in [1], in [2], in [3], in assay [4], in assay [5] and in assay [6] was below 5% in each case. Moreover, the inhibition at 10 µM in [7] is below 5%; in [8] it was 6.07%; in assay [9] it was below 5%; in assay [10], below 5%; in [11] it was below 5%; in [12], 9.98%. The inhibition at 10 µM in assay [13] was below 5%; in assay [14] it was below 5%; in assay [16], 12.3%. In addition, in assay [17], the IC50 was determined as 0.605 ± 0.023 µM.
For the compound `Cc1ccc(-c2nn(-c3ccc(S(N)(=O)=O)cc3)cc2-c2nnc(N)s2)cc1` [Compound 10, 4-[4-(5-Amino-1,3,4-thiadiazol-2-yl)-3-(p-tolyl)-1H-pyrazol-1-yl] benzenesulfonamide], the inhibition at 10 µM in [1] is 5.43%; in assay [2], 11.2%; in [3], 19.5%; in assay [4], below 5%; in assay [5] it was 7.72%; in assay [6], below 5%. For the same compound, the inhibition at 10 µM in assay [7] was 9.42%; in assay [8], 15.6%; in assay [9] it was 12.1%; in assay [10] it was 7.96%; in assay [11] it was 15.5%; in assay [13], below 5%. For the same compound, the inhibition at 10 µM in assay [14] was 9.9%; in assay [15], below 5%; in assay [16], 15.4%. Further, the 50% inhibitory concentration (IC50) in [17] was 1.14 µM and 1.15 µM.
With `Cc1ccc(-c2nn(-c3ccc(S(N)(=O)=O)cc3)cc2-c2n[nH]c(=S)[nH]2)cc1` [Compound 11, 4-[4-(5-Mercapto-1H-1,2,4-triazol-3-yl)-3-(p-tolyl)-1H-pyrazol-1-yl] benzenesulfonamide], the inhibition at 10 µM in assay [1] was below 5%; in [2], below 5%; in assay [3], 23.9%; in assay [4] it was 9.56%; in assay [5] it was 13%; in assay [6], 9.95%. The inhibition at 10 µM is 5.33% in assay [7]; 8.18% in [8]; 11.4% in assay [9]; below 5% in [10]; below 5% in assay [11]; below 5% in assay [13]. In addition, the figures for the inhibition at 10 µM in [14], in assay [15] and in assay [16] were 10.1%, 7.65% and below 5%, respectively. The IC50 in assay [17] is 0.33 µM and 0.332 µM.

Source of the values: article PMC12454493, “Insight on novel sulfamoylphenyl pyrazole derivatives as anticancer carbonic anhydrase inhibitors” (Molecular Diversity, 2024).
